Test results from PMC12903969, “Discovery of a Novel and Potent Kir4.1 Inhibitor as a Safe and Rapid‐Onset Antidepressant Agent in Mice” (Advanced Science, 2025).
Values joined by “and” are separate entries in the source; they are usually repeats but may differ in a detail not shown here. Equal values may be shown once. Read-outs that look alike come from different tables or passages of the source.

Columns and labels:
Kir2.1 = target: T1, Kir2.1 (Homo sapiens, UniProt P63252); experiment: Whole-cell patch clamp, Kir2.1; format: cell-based
T1 construct: host or cells: CHO-K1
T1 sequence (P63252 1-427): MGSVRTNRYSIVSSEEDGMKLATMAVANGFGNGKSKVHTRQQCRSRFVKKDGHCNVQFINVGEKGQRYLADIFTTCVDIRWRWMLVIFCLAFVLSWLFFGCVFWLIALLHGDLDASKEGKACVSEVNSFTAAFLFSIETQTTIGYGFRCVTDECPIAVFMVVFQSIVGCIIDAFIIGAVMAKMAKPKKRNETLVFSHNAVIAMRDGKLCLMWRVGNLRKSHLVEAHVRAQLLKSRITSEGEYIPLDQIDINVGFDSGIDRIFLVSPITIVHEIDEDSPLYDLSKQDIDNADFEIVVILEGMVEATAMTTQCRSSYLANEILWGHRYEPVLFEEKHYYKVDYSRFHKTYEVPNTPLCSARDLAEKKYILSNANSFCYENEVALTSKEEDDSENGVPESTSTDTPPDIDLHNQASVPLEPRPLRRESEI
Method: Plasmids encoding WT human potassium channels Kir1.1, Kir2.1, Kir2.2, Kir4.1, and Kir4.2 were obtained from the Beijing Genomics Institute. All point mutations were constructed using the QuickChange II Site‐Directed Mutagenesis Kit (Stratagene) and subsequently verified by sequencing.
CHO‐K1 cells were maintained in DMEM/F12 growth medium containing 10% fetal bovine serum. Plasmids encoding the target genes (3600 ng) and enhanced green fluorescent protein (400 ng) were cotransfected into cells using Lipofectamine 2000 (Invitrogen) in accordance with the manufacturer's instructions. Cells were seeded onto poly‐d‐lysine (PDL)‐coated glass coverslips 1 h prior to electrophysiological recordings. All cells were cultured under standard conditions of 5% CO2 at 37 °C.
Whole‐cell patch‐clamp recordings were obtained either in transiently transfected CHO‐K1 cells or in primary cultured astrocytes at room temperature using standard patch‐clamp techniques with an Axopatch‐700B amplifier (Axon Instruments). The signals were filtered at 2 kHz and sampled at 20 kHz using the Digidata 1440A interface (Axon Instruments). The resistance of borosilicate glass pipettes was typically 2–4 MΩ when filled with the internal solution. Drug application was facilitated using a BPS perfusion system (ALA Scientific Instruments). Macroscopic currents generated by expressed potassium channels were recorded under the voltage‐clamp conditions with an internal pipette solution composed of (in mM): 140 KCl, 5 NaCl, 1 CaCl2, 1 MgCl2, 10 HEPES, and 10 EGTA, pH 7.2 adjusted with KOH. The external solution contained (in mM): 140 NaCl, 5 KCl, 2 CaCl2, 1 MgCl2, 10 glucose, and 10 HEPES, pH 7.4 adjusted with NaOH. Currents were elicited with a hyperpolarized voltage at −120 mV from the holding potential of −80 mV, followed by a ramp voltage depolarizing to +50 mV. Astrocytic resting membrane potentials were recorded under current‐clamp conditions (I = 0 pA) using standard internal and external solutions, determined immediately after achieving whole‐cell mode.

C57BL/6J mice [1] = experiment: Novelty-suppressed feeding test (NSFT); format: in vivo
Method: The mice were individually housed in new cages and deprived of food for 24 h. The testing equipment was a brightly lit plastic box measuring 40 × 40 × 30 cm^3 with a light intensity of 1100–1200 lux. Each mouse was positioned in a corner of the device with one food pellet located at the center. The latency to start chewing food was recorded within 5 min. Immediately thereafter, the mice were placed back in their home cage with pre‐measured food, and the amount consumed in the next 5 min was used as a baseline to account for appetite changes that might affect the outcome.

C57BL/6J mice [2] = experiment: Seizure threshold measurement in 6-Hz seizure test; format: in vivo; design: key to seizure incidence, Multiple dose-6 Hz / seizure incidence, Single dose-6 Hz: % of mice showing seizures; details: for seizure incidence, Multiple dose-6 Hz / seizure incidence, Single dose-6 Hz: JX3212 10 mpk
From the text: Male C57BL/6J mice were subjected to corneal electroshock stimulation using a Grass S48 stimulator (Grass Technologies) with standardized parameters: frequency, 6 Hz; rectangular pulse width, 0.2 ms; and duration, 3 s. Seizure activity was operationally defined as the occurrence of any of the following behaviors: forelimb clonus, postictal immobility, facial myoclonus, staring behavior, orofacial automatization (chewing/unilateral pawing), or Straub tail posture. […] The seizure incidence was compared between the vehicle‐ and JX3212‐treated groups, with the CS50 threshold calculated as the minimal current intensity required to induce seizures in 50% of the subjects via probit analysis.

C57BL/6J mice [3] = experiment: Seizure threshold measurement in maximal electroshock (MES); format: in vivo; design: seizure incidence, Single dose-MES / seizure incidence, Multiple dose-MES: unit not given here; details: for seizure incidence, Multiple dose-MES / seizure incidence, Single dose-MES: JX3212 10 mpk
Method: Male C57BL/6J mice underwent corneal electroshock stimulation using an Orchid Scientifics EC‐02 stimulator with a fixed pulse duration of 0.2 s. The current intensity was titrated in a stepwise manner (0.1 mA increments) based on real‐time behavioral responses during serial testing. Seizure severity was quantified using the hindlimb tonic extension score, with rigorous blinding applied to the vehicle‐ and JX3212‐treated groups. Subsequently, CS50 values were determined.

[4] = 10 mg kg−1, single or 14-day consecutive administration

c1ccc2c(c1)oc1ccc(Nc3ccnc(NCCCN4CCOCC4)n3)cc12 [JX3212, N^4-(dibenzo[b,d]furan-2-yl)-N^2-(3-morpholinopropyl)pyrimidine-2,4-diamine]
inhibition at 3 µM (Kir2.1; 3 µM, mean ± SEM, read-out: inhibition of Kir2.1): 49.9 ± 4.35%
Kir isoforms: Kir2.1 inhibition, single recordings (Kir2.1; JX3212 3 µM (Fig 2A)): 46.776 and 54.8667
inhibition at 3 µM (Kir2.1; JX3212 3 µM (Fig 2A), read-out: Kir isoforms: Kir2.1 inhibition, single recordings): 48.1%
effective threshold dose in NSFT (C57BL/6J mice [1]; acute administration, doses 1, 3, 10 mg kg−1): 10 mg/kg
food intake in home cage after NSFT (in words) (C57BL/6J mice [1]; repeated administration, vs vehicle): remained comparable to that in the vehicle group
Food intake in home cage, single mice (C57BL/6J mice [1]; repeated doses, 3 mg/kg (Fig 3F), 3 mg/kg): 0.14 and 0.11 and 0.12 and 0.1 and 0.09
NSFT antidepressant-like response after repeated administration (in words) (C57BL/6J mice [1]; seven days, imipramine 15 mg kg−1, JX3212 3/10 mg kg−1): elicited significant antidepressant‐like responses
NSFT latency to feed (in words) (C57BL/6J mice [1]; single dose 10 mg kg−1 i.p., 1 h after administration): significantly reduced the latency to feed
seizure susceptibility, 6-Hz seizure model (in words) (C57BL/6J mice [2]; [4]): did not alter seizure susceptibility
seizure incidence, Multiple dose-6 Hz (C57BL/6J mice [2]; stimulus 18 mA): 25
seizure incidence, Multiple dose-6 Hz (C57BL/6J mice [2]; stimulus 20 mA): 50
seizure incidence, Single dose-6 Hz (C57BL/6J mice [2]; stimulus 20 mA): 22.22
seizure incidence, Multiple dose-6 Hz (C57BL/6J mice [2]; stimulus 22 mA): 75
seizure incidence, Single dose-6 Hz (C57BL/6J mice [2]; stimulus 22 mA): 50
seizure incidence, Single dose-6 Hz (C57BL/6J mice [2]; stimulus 24 mA): 57.14
seizure incidence, Multiple dose-6 Hz (C57BL/6J mice [2]; stimulus 26 mA): 87.5
seizure incidence, Single dose-6 Hz (C57BL/6J mice [2]; stimulus 26 mA): 85.71
seizure susceptibility, maximal electronic seizure model (in words) (C57BL/6J mice [3]; [4]): did not alter seizure susceptibility
seizure incidence, Multiple dose-MES (C57BL/6J mice [3]; stimulus 0.45 mA): 0
seizure incidence, Single dose-MES (C57BL/6J mice [3]; stimulus 0.45 mA): 0
seizure incidence, Multiple dose-MES (C57BL/6J mice [3]; stimulus 0.55 mA): 12.5
seizure incidence, Single dose-MES (C57BL/6J mice [3]; stimulus 0.55 mA): 37.5
seizure incidence, Multiple dose-MES (C57BL/6J mice [3]; stimulus 0.65 mA): 50
seizure incidence, Single dose-MES (C57BL/6J mice [3]; stimulus 0.65 mA): 50
seizure incidence, Multiple dose-MES (C57BL/6J mice [3]; stimulus 0.75 mA): 87.5
seizure incidence, Single dose-MES (C57BL/6J mice [3]; stimulus 0.75 mA): 75
